As a reminder, the IC50 is the concentration that inhibits the measured activity by half.

Converted amounts (≈) assume the structure as drawn.

From publication PMC9680624 (RSC Advances, 2022) come the findings set out here.

The subject of data set [1] is HepG-2. The data set can be described thus: In vitro anti-proliferative activity, MTT assay. Conditions: Homo sapiens, HepG2, 24 h, read-out: In vitro cytotoxicity IC50 HepG-2. The format is cell-based. (Formazan colour is commonly taken as a measure of viable cells.)
Data set [2] concerns MCF-7. The data set can be described thus: In vitro anti-proliferative activity, MTT assay. The format is cell-based. Conditions: Homo sapiens, MCF7, 24 h, read-out: In vitro cytotoxicity IC50 MCF-7.
In data set [3] the test system is PC3. As to the kind of experiment: In vitro anti-proliferative activity, MTT assay. It is filed as cell-based. Conditions: Homo sapiens, PC-3, 24 h, read-out: In vitro cytotoxicity IC50 PC3.
Data set [4] concerns VEGF. The data set can be described thus: VEGF level in HepG-2 cell supernatant, ELISA. It is filed as cell-based, human. Conditions: HepG-2 supernatant, 10 μM, 72 h, control 432.5. Background: ELISA stands for enzyme-linked immunosorbent assay.
Data set [5] has as its system caspase-8. As to the kind of experiment: Caspase-8 level in HepG-2 cell supernatant, ELISA. It is filed as cell-based, human. Conditions: for increase of caspase-8 level: HepG-2 cells, versus control cells; for CASPASE-8 level: HepG-2 supernatant, ELISA, 10 μM, 72 h, control 1.08.
Data set [6] deals with TNF-α. As to the kind of experiment: TNF-α level in HepG-2 cell supernatant, ELISA. The format is cell-based, human. Conditions: HepG-2 supernatant, 10 μM, 72 h, control 162.5.
The test system of data set [7] is NF-κB P65. As to the kind of experiment: NF-κB P65 level in HepG-2 cell lysate, ELISA. The format is cell-based, human. Conditions: 72 h, control 278.1.
In data set [8] the test system is Vero cells. As to the kind of experiment: Cytotoxicity against Vero cells, MTT assay. It is filed as cell-based. Conditions: for Selectivity index (SI) HepG-2: SI = cytotoxicity against Vero cells/cytotoxicity against HepG-2 cell line; for Selectivity index (SI) PC3: SI = cytotoxicity against Vero cells/cytotoxicity against PC3 cell line.
Data set [9] is described as follows: Cytotoxicity against Vero cells, MTT assay. The format is cell-based. Conditions: African green monkey, Vero cells (normal, non-cancerous cell line).

As to `Fc1ccc(Nc2nc(Cl)nc3ccccc23)cc1Cl` [Compound 6, 2-Chloro-N-(3-chloro-4-fluorophenyl)quinazolin-4-amine], the IC50 came to 74.8 ± 4.1 µg/mL (≈ 243 µM) in data set [1], 81.5 ± 4.2 µg/mL (≈ 265 µM) in [2] and 85 ± 4.7 µg/mL (≈ 276 µM) in data set [3].

Take `CNc1nc(Nc2ccc(F)c(Cl)c2)c2ccccc2n1` [Compound 7a, N ^4-(3-Chloro-4-fluorophenyl)-N^2-methylquinazoline-2,4-diamine]: the IC50 in data set [1] amounted to 40.5 ± 2.8 µg/mL (≈ 134 µM); in data set [2], 28.1 ± 2.1 µg/mL (≈ 92.9 µM); in data set [3], 47.2 ± 2.8 µg/mL (≈ 156 µM).

In the case of `CCNc1nc(Nc2ccc(F)c(Cl)c2)c2ccccc2n1` [Compound 7b, N ^4-(3-Chloro-4-fluorophenyl)-N^2-ethylquinazoline-2,4-diamine], the IC50 in data set [1] was 11.7 ± 0.8 µg/mL (≈ 36.9 µM); in data set [2], 9.45 ± 0.9 µg/mL (≈ 29.8 µM); in [3], 15.5 ± 1.3 µg/mL (≈ 48.9 µM); in data set [9] it was 163.6 ± 1.12 µg/mL (≈ 516 µM). This molecule also came in with a VEGF level in [4] of 218.5 pg/mL. Also, the “increase of caspase-8 level” value in [5] was “threefold increase”. This molecule also gave a CASPASE-8 level in data set [5] of 3.2 ng mL^−1. Moreover, the TNF-α level in [6] is 79.3 pg/mL. For the same molecule, in data set [7], the “NFκB P65 level” value was determined as 113.7 pg/mL. Moreover, the “Selectivity index (SI) HepG-2” value in data set [8] is listed as 13.78. Further, in data set [8] (SI = cytotoxicity against Vero cells/cytotoxicity against MCF-7 cell line), the “Selectivity index (SI) MCF-7” value is reported as 17.04. Also, in [8], the “Selectivity index (SI) PC3” value was 10.40.

In the case of `Fc1ccc(Nc2nc(Cl)nc3cccc(Cl)c23)cc1Cl` [Compound 11a, 2,5-Dichloro-N-(3-chloro-4-fluorophenyl)quinazolin-4-amine], the values for the half-inhibitory concentration (IC50) in [1], in data set [2] and in [3] were 77.2 ± 4.2 µg/mL (≈ 225 µM), 86.1 ± 4.4 µg/mL (≈ 251 µM) and 91.3 ± 4.9 µg/mL (≈ 266 µM), respectively.

For `Fc1ccc(Nc2nc(Cl)nc3ccc(Cl)cc23)cc1Cl` [Compound 11b, 2,6-Dichloro-N-(3-chloro-4-fluorophenyl)quinazolin-4-amine], the IC50 in [1] is 38.7 ± 2.8 µg/mL (≈ 113 µM); in data set [2], 45.9 ± 3 µg/mL (≈ 134 µM); in data set [3], 51.2 ± 3.5 µg/mL (≈ 149 µM).

For `O=C1CCC(Nc2nc(Cl)nc3cccc(Cl)c23)C(=O)N1` (stereo not shown) [Compound 13a, 3-((2,5-Dichloroquinazolin-4-yl)amino)piperidine-2,6-dione], the IC50 turned out to be 46.3 ± 3.1 µg/mL (≈ 142 µM) in data set [1], 35.3 ± 2.4 µg/mL (≈ 109 µM) in [2] and 54.3 ± 3 µg/mL (≈ 167 µM) in data set [3].

Consider `O=C1CCC(Nc2nc(Cl)nc3ccc(Cl)cc23)C(=O)N1` (stereo not shown) [Compound 13b, 3-((2,6-Dichloroquinazolin-4-yl)amino)piperidine-2,6-dione], for which the values for the IC50 in [1], in data set [2] and in data set [3] were 59 ± 3.3 µg/mL (≈ 181 µM), 29.3 ± 2.3 µg/mL (≈ 90.2 µM) and 38.4 ± 3.1 µg/mL (≈ 118 µM), respectively.

With `NC(=O)NNc1nc(Cl)nc2cccc(Cl)c12` [Compound 15a, 2-(2,5-Dichloroquinazolin-4-yl)hydrazine-1-carboxamide], the IC50 in data set [1] was determined as 24.5 ± 2 µg/mL (≈ 90.1 µM); in data set [2], 17.3 ± 1.3 µg/mL (≈ 63.7 µM); in [3] it was 26.1 ± 2 µg/mL (≈ 95.8 µM).

Turning to `NC(=O)NNc1nc(Cl)nc2ccc(Cl)cc12` [Compound 15b, 2-(2,6-Dichloroquinazolin-4-yl)hydrazine-1-carboxamide], the IC50 in data set [1] is 16.2 ± 1.4 µg/mL (≈ 59.5 µM); in [2], 9.87 ± 0.9 µg/mL (≈ 36.3 µM); in data set [3], 13.8 ± 1.2 µg/mL (≈ 50.7 µM).

As to `Cc1ccc(S(=O)(=O)NNc2nc(Cl)nc3cccc(Cl)c23)cc1` [Compound 19a, N′-(2,5-Dichloroquinazolin-4-yl)-4-methylbenzenesulfonohydrazide], the IC50 worked out at 19.1 ± 1.5 µg/mL (≈ 49.8 µM) in [1], 12.8 ± 1 µg/mL (≈ 33.3 µM) in [2] and 21.5 ± 1.6 µg/mL (≈ 56 µM) in [3].

Consider `O=S(=O)(NNc1nc(Cl)nc2cccc(Cl)c12)c1ccc(F)cc1` [Compound 19b, N′-(2,5-Dichloroquinazolin-4-yl)-4-fluorobenzenesulfonohydrazide], for which the IC50 in data set [1] came out at 28.9 ± 2.2 µg/mL (≈ 74.7 µM); in [2], 20.5 ± 1.5 µg/mL (≈ 52.9 µM); in data set [3], 32.7 ± 2.3 µg/mL (≈ 84.5 µM).

For `Cc1ccc(S(=O)(=O)NNc2nnc(Cl)c3ccccc23)cc1` [Compound 24a, N′-(4-Chlorophthalazin-1-yl)-4-methylbenzenesulfonohydrazide], the IC50 in [1] came out at 3.87 ± 0.2 µg/mL (≈ 11.1 µM); in data set [2] it was 6.07 ± 0.7 µg/mL (≈ 17.4 µM); in data set [3], 8.63 ± 0.6 µg/mL (≈ 24.7 µM).

With `O=S(=O)(NNc1nnc(Cl)c2ccccc12)c1ccc(F)cc1` [Compound 24b, N′-(4-Chlorophthalazin-1-yl)-4-fluorobenzenesulfonohydrazide], the IC50 in data set [1] is 2.51 ± 0.1 µg/mL (≈ 7.11 µM); in data set [2], 5.8 ± 0.4 µg/mL (≈ 16.4 µM); in data set [3], 4.11 ± 0.3 µg/mL (≈ 11.7 µM); in [9], 161.1 ± 1.42 µg/mL (≈ 457 µM). Further, the VEGF level in data set [4] came to 185.3 pg/mL. The “increase of caspase-8 level” value in [5] is “about 7 folds”. Also, in data set [5], the CASPASE-8 level is 6.9 ng mL^−1. This molecule yielded a TNF-α level in [6] of 82.5 pg/mL. Also, the “NFκB P65 level” value in data set [7] worked out at 76.5 pg/mL. Further, the “Selectivity index (SI) HepG-2” value in [8] was found to be 65.18. Moreover, the “Selectivity index (SI) PC3” value in data set [8] came to 39.80.

In the case of `O=S(=O)(NNc1nnc(Cl)c2ccccc12)c1ccccc1` [Compound 24c, N′-(4-Chlorophthalazin-1-yl)benzenesulfonohydrazide], the figures for the IC50 in data set [1], in [2] and in [3] were 7.96 ± 0.5 µg/mL (≈ 23.8 µM), 8.12 ± 0.7 µg/mL (≈ 24.3 µM) and 14.9 ± 1.1 µg/mL (≈ 44.6 µM), respectively.

`O=C1CCC(N2C(=O)c3ccccc3C2=O)C(=O)N1` (stereo not shown) [Thalidomide, thalidomide, reference compound]: the IC50 in [1] was 11.3 ± 0.54 µg/mL (≈ 43.6 µM); in [2], 14.6 ± 0.57 µg/mL (≈ 56.5 µM); in [3] it was 16.9 ± 0.7 µg/mL (≈ 65.3 µM). For the same molecule, the VEGF level in data set [4] was determined as 153.2 pg/mL. The “increase of caspase-8 level” value in [5] was 8 folds. In addition, the CASPASE-8 level in data set [5] is 8.3 ng mL^−1. In data set [6], this molecule came in with a TNF-α level of 53.1 pg/mL. Also, the “NFκB P65 level” value in [7] stood at 110.5 pg/mL.
